Columns and labels:
BMSCs = experiment: Transwell migration (chemotaxis) assay; assay type: cell-based, mice
Experimental: The migratory ability of BMSCs was determined using Transwell plates (Corning Costar, 6.5 mm in diameter with 8 μm pore filters). In brief, 5×10^4 cells in 100 μL, serum-free medium were added into the upper well, and 600 μL, of CXCL12-containing medium was placed in the lower well of a Transwell plate. Following incubation for 5 h (37° C., 100% humidity, 5% CO2 in air), the number of cells that had migrated to the lower side of the filter was counted under a light microscope at ×200 magnification, and the data were presented as the average number of migratory in five randomly-selected fields. Each experiment was performed in triplicate, and the data were averaged for statistical analysis.

small-sized DRG neurons = experiment: Whole-cell patch clamp recordings of action potentials in whole mount DRG; assay type: cell-based, mice
Experimental: The L4-L5 whole mount DRGs were carefully removed from the vertebral column and placed in cold oxygenated ACSF as detailed in Lee et al. (Cell 2014, 157, 1393-1404). The connective tissue was gently removed under a microscope and the ganglia were digested with a mixture of 1.0 mg/mL protease and 1.6 mg/mL collagenase (Sigma) for 30 min at 37° C. The ganglion was transferred into a holding chamber containing normal Mg2+-free ACSF with CNQX (2 μM) bubbled with 95% O2 and 5% CO2 at room temperature. Whole-cell current clamp recordings were performed at room temperature (28° C.) to measure action potentials with Axopatch-200B amplifier (Axon Instruments). The patch pipettes were pulled from borosilicate capillaries (Chase Scientific Glass Inc.). When filled with the pipette solution, the resistance of the pipettes was 4-5 MΩ. The recording chamber (300 μL) was continuously superfused (3-4 mL/min). Series resistance was compensated for (>80%), and leak subtraction was performed. Data were low-pass-filtered at 2 KHz, sampled at 10 KHz. The pClamp10 (Axon Instruments) software was used during experiments and analysis.

[1] = test system: lamina IIo neurons of spinal cord slices; experiment: Patch-clamp recordings of sEPSCs in spinal cord slices; assay type: cell-based, mice
Experimental: A portion of the lumbar spinal cord (L4-L5) was removed from mice (4-7 weeks old) under urethane anesthesia (1.5-2.0 g/kg, i.p.) and kept in pre-oxygenated ice-cold Krebs solution (Xu, et al. Ann. Neurol. 2013, 74, 490-495). Transverse slices (400-600 μm) were cut on a vibrating microslicer. The slices were perfused with Kreb's solution (8-10 mL/min) that was saturated with 95% O2 and 5% CO2 at 36° C. for at least 1-3 h prior to experiment. The Kreb's solution contained (in mM): NaCl 117, KCl 3.6, CaCl2 2.5, MgCl2 1.2, NaH2PO4 1.2, NaHCO3 25, and […]. The whole-cell patch-clamp recordings were made from lamina IIo neurons in voltage-clamp mode. Patch pipettes were fabricated from thin-walled, borosilicate, glass-capillary tubing (1.5 mm outer diameter; World Precision Instruments). After establishing the whole-cell configuration, neurons were held their holding potentials at −70 mV for recording sEPSCs. The resistance of a typical patch pipette is 5-10 M. The internal solution contained the following (in mM): 135 potassium gluconate, 5 KCl, 0.5 CaCl2, 2 MgCl2, 5 EGTA, 5 HEPES, and 5 ATP-Mg. Membrane currents were amplified with an Axopatch 200 A amplifier (Molecular Devices) in voltage-clamp mode. Signals were filtered at 2 kHz and digitized at 5 kHz. Data were stored with a personal computer using pClamp 6 software and analyzed with Mini Analysis (Synaptosoft).

CCI mice [2] = experiment: CCI neuropathic pain model: mechanical allodynia (von Frey) and thermal hyperalgesia (Hargreaves); assay type: in vivo
From the text: Adult CD1 mice (male, 25-32 g) were purchased from Charles River Laboratories and used for behavioral studies and primary cultures of BMSCs. Neuropathic pain was produced by chronic constriction injury of the sciatic nerve (CCI) (Bennett, et al. J. Neurosci. 1998, 18, 3059-3072) and spared nerve injury (SNI) (Decosterd, et al. Pain 2000, 87, 149-158). For producing the CCI model animals were anesthetized with isoflurane, the left sciatic nerve was exposed, and three ligatures (7-0 prolene) were placed around the nerve proximal to the trifurcation with one millimeter between each ligature. The ligatures were loosely tied until a short flick of the ipsilateral hind limb was observed. Animals in the sham group received surgery identical to those described but without nerve ligation. Under isoflurane anesthesia, the SNI surgery was also performed with a 5.0 silk tight ligation of the tibial and common peroneal nerves followed by transection and removal of a 3-5 mm nerve portion. However, the third peripheral branch of the sciatic nerve, the sural nerve, remained intact, and any contact or stretch to this nerve was carefully avoided. All the animal procedures performed in this study were approved by the Animal Care Committee of Duke University Medical Center. TGF-β1, […] neutralizing antibody, TNF and CXCL12/SDF-1α were purchased from R&D, LPS from Sigma. AMD3100 (CXCR4 antagonist) and SB431542 (TGF-β1R inhibitor) were purchased from Selleckchem. IL-10 neutralizing antibody was purchased from Biolegend, and normal Rabbit IgG were purchased from Santa Cruz. For intrathecal injection, spinal cord puncture was made with a 30-G needle between the L5 and L6 level to deliver reagents (10 μL) or cells (1 or 2.5×10^5 cells in 10 μL PBS) to the cerebral spinal fluid (Hylden, et al. Eur. J. Pharmacol. 1980, 67, 313-316). […] Cells were then washed three times with PBS and resuspended. Animals were habituated to the testing environment daily for at least 2 days before baseline testing. The room temperature and humidity remained stable for all experiments. All the behaviors were tested blindly. For testing mechanical sensitivity, mice were confined in boxes placed on an elevated metal mesh floor and their hindpaws were stimulated with a series of von Frey hairs with logarithmically increasing stiffness (0.02-2.56 g, Stoelting), presented perpendicularly to the central plantar surface. The 50% paw withdrawal threshold was determined by Dixon's up-down method. Mechanical allodynia after SNI was also assessed by frequency response (expressed as percentage response) to a low-threshold von Frey hair (0.16 g, 10 times). […] The falling latency was recorded and averaged.

CCI mice [3] = experiment: Two-chamber conditioned place preference test for ongoing pain after CCI; assay type: in vivo; conditions: clonidine 10 μg i.t.
From the text: To test spontaneous/ongoing pain measurement, a single trial conditioning protocol for conditioned place preference (CPP) was used as described in King et al. (Nat. Neurosci. 2009, 12, 1364-1366) and Xu et al. (Ann. Neurol. 2013, 74, 490-495). All mice underwent a 3-day pre-conditioning habituation and animal behavior was video-recorded. […] On the conditioning day, mice received the vehicle (saline) control paired with a randomly chosen chamber in the morning, and then the appropriate treatment (clonidine, 10 μg, i.t.) paired with the other chamber 4 h later. Chamber pairings were counterbalanced. On the test day, 20 h following the afternoon pairing, mice were placed in the CPP box with access to both chambers and the behavior was recorded for 15 min and analyzed by ANY-maze software for chamber preference.

[4] = test system: PAX-induced mechanical allodynia in mice; experiment: Paclitaxel (PAX)-induced neuropathic pain model: paw withdrawal frequency to von Frey hair (0.4 g); assay type: in vivo; conditions: i.t. TGF-β1 100 ng, 7 weeks after first paclitaxel injection
Experimental: PAX-induced neuropathic pain (mechanical allodynia) was evaluated by paw withdrawal frequency to von Frey hair (0.4 g) stimuli (10×). Intrathecal BMSCs (2.5×10^5) produced a rapid (1 week) and long lasting (7 weeks) reduction in PAX-induced mechanical allodynia (FIG. 19B).
The analgesic efficacy of TGF-β1 was also tested in a PAX-induced neuropathic pain model. […] PAX-induced neuropathic pain was evaluated by paw withdrawal frequency to von Frey hair (0.4 g) stimuli (10×). Intrathecal TGF-β1 transiently reversed PAX-induced mechanical allodynia for 3 hours following injection (FIG. 20).

TGF-β1 = experiment: ELISA of TGF-β1 release and expression in BMSCs cultures; assay type: cell-based, mice; conditions: TNF 10 ng/mL, 60 min, LPS 100 ng/mL
Experimental: Tgfβ1 siRNA (Catalog: J-040652-06), Cxcr4 siRNA (Catalog: J-060184-06) and Non-targeting siRNA (Catalog: D-0018100-01-20) were purchased from Thermo Scientific Dharmacon. SiRNA was dissolved in RNase-free water at 1 μg/μL as stock solution and mixed with transfection reagent polyethyleneimine (PEI, Fermentas) and normal saline before use. Specifically, 1 μg siRNA was dissolved in 3.3 μL of PEI and 66 μL of normal saline (Kawasaki, et al. Nat. Med. 2008, 14, 331-336).
Primary cultures of BMSCs were obtained from CD-1 donor mice under aseptic conditions. The mice were sacrificed with isoflurane and the both ends of the tibiae and femurs were cut off by scissors. A syringe fitted with 20-gauge needle was inserted into the shaft of the bone, and bone marrow was flushed out with culture medium (modified Eagle's medium containing 10% fetal bovine serum, 2 mM L-glutamine, 100 U/mL penicillin and 100 μg/mL streptomycin, 250 μg/mL Fungizone, all obtained from Gibco). After the centrifuge at 1000 g for 5 min at room temperature, the pellet was resuspended in 2 mL fresh warm culture medium and mechanically dissociated, and the suspension was passed through a 40-μm cell strainer to remove debris. After the centrifuge the cells were resuspended at a concentration of 1×10^6 cells/mL. The cells were then incubated at 37° C. in 5% CO2 in 75 cm2 cell culture flasks or 6-well culture plates. […]

IL-10 = experiment: ELISA of IL-10 release in BMSCs culture medium; assay type: cell-based, mice; conditions: TNF 10 ng/mL, 60 min, LPS 100 ng/mL
Experimental: Primary cultures of BMSCs were obtained from CD-1 donor mice under aseptic conditions. The mice were sacrificed with isoflurane and the both ends of the tibiae and femurs were cut off by scissors. A syringe fitted with 20-gauge needle was inserted into the shaft of the bone, and bone marrow was flushed out with culture medium (modified Eagle's medium containing 10% fetal bovine serum, 2 mM L-glutamine, 100 U/mL penicillin and 100 μg/mL streptomycin, 250 μg/mL Fungizone, all obtained from Gibco). After the centrifuge at 1000 g for 5 min at room temperature, the pellet was resuspended in 2 mL fresh warm culture medium and mechanically dissociated, and the suspension was passed through a 40-μm cell strainer to remove debris. After the centrifuge the cells were resuspended at a concentration of 1×10^6 cells/mL. The cells were then incubated at 37° C. in 5% CO2 in 75 cm2 cell culture flasks or 6-well culture plates. After 24 hours, cells were washed gently with PBS and replaced with fresh culture media. Adherent cells were further cultured with a medium change every 2-3 days until confluence was reached (also see FIG. 11).
Mouse TGF-β1, IL-10, and CXCL12/SDF-1α ELISA kits were purchased from R&D Systems. ELISA was performed using BMSCs culture medium or cell lysate, CSF, and DRG tissue. Cultured cells and DRGs were homogenized in a lysis buffer containing protease and phosphatase inhibitors. […]

Compound: c1cc(CN2CCCNCCNCCCNCC2)ccc1CN1CCCNCCNCCCNCC1 [AMD3100]
- CXCL12-induced migration of BMSCs (BMSCs; AMD3100 5 mg/L 30 min): blocked

Compound: NC(=O)c1ccc(-c2nc(-c3ccc4c(c3)OCO4)c(-c3ccccn3)[nH]2)cc1 [SB431542, reference compound]
- effect on the TGF-β1 suppression of spike frequency (small-sized DRG neurons; SB431542 10 μM): reversed
- effect on the TGF-β1 (10 ng/mL) blockade of sEPSC increases ([1]; SB431542 10 μM): abrogated
- effect on the anti-allodynic and anti-hyperalgesic effects of TGF-β1 (10 ng) (CCI mice [2]; SB431542 100 pmol i.t., CCI mice): eliminated

Compound: Clc1cccc(Cl)c1N=C1NCCN1 [clonidine]
- time in chamber paired with drug versus chamber paired with vehicle (CPP) (CCI mice [3]): spent more time

Compound: CXCL12: chemokine, ligand of CXCR4, purchased from R&D
- migration of BMSCs in vitro (BMSCs; CXCL12 0-100 ng/ml): induced migration

Compound: TGF-β1: exogenous recombinant TGF-β1 purchased from R&D, given intrathecally or superfused
- CCI-induced increase in spike frequency in small-sized DRG neurons (small-sized DRG neurons; TGF-β1 2 or 10 ng/mL): dose-dependently suppressed
- time to suppression of the spike frequency increase (small-sized DRG neurons; TGF-β1 2 or 10 ng/mL): 2 to 5 min
- sEPSC frequency and amplitude in sham mice ([1]; superfusion 10 ng/mL): no effects
- time to blockade of CCI-induced sEPSC increases ([1]; superfusion 2 or 10 ng/mL): 2 min
- CCI-induced increases in sEPSC frequency and amplitude ([1]; superfusion 2 or 10 ng/mL, slices from CCI mice (4 d)): blocked
- duration of reversal of PAX-induced mechanical allodynia following injection [4]: 3 h
- late-phase neuropathic pain on post-CCI day 21 (CCI mice [2]; i.t. TGF-β1): effectively inhibited
- mechanical allodynia and thermal hyperalgesia at 5 days after CCI (CCI mice [2]; i.t. TGF-β1 2 ng and 10 ng): dose-dependently inhibited
- time after which the reversal of allodynia/hyperalgesia recovered (CCI mice [2]; i.t. TGF-β1 2 and 10 ng, 5 days after CCI): 24 h

Compound: TNF-α
- TGF-β1 release of BMSCs on exposure (TGF-β1): significantly increased
- IL-10 release of BMSCs on exposure (increase) (IL-10): not
